In patent US20070225316A1, “Methods and compositions for treating schizophrenia” (priority 2006, published 2007):
Counter-ions that a name gives are not always drawn.

Tested on: NMDA receptors (NMDA-induced currents)
Experiment: Patch clamp (whole cell) registration of NMDA-induced currents in cultured rat hippocampus neurons
Assay type: cell-based
Details: for Change of the blocking effect of MK-801 on NMDA-induced currents after preliminary application of the substance: result in words
Experimental: Experiments were carried out by the patch clamp method on freshly isolated neurons of a rat brain cortex or on cultured rat hippocampus neurons. Neurons for cultivation were obtained from the hippocampus of neonatal rats (1-2 days) by the method of trypsinization followed by pipetting. Cells suspended in culture medium were placed in 3 mL quantities into the wells of a 6-well planchette (Nunc) or into Petri dishes, in which glasses coated with poly-L-lysine had first been placed. The cell concentration as a rule was […]. The culture medium consisted of Eagle's minimum medium and a DME/F12 medium (1:1) supplemented with 10% calf serum, glutamine (2 mM), gentamycin (50 μg/mL), glucose (15 mM) and 20 mM KCl, with the pH brought to 7-7.4 using NaHCO3. Planchettes containing cultures were placed in a CO2— incubator at 37° C. and 100% humidity. Cytosine arabinoside 10-20 μL was added on the second to third day of cultivation. After 6-7 days of cultivation 1 mg/mL glucose was added to the medium, or the medium was exchanged, depending on the following experiment. The cultured hippocampus neurons were placed in a 0.4 mL working chamber. The working solution had the following composition (mM): NaCl 150.0, KCl 5.0, CaCl2 2.6, MgSO4×7H2O 2.0, HEPES 10.0, glucose 15.0, pH 7.36.
Transmembrane currents produced by application of NMDA were registered by the patch clamp electrophysiological method in the whole cell configuration. Application of substances was done by the method of rapid superfusion. Currents were registered with the aid of borosilicate microelectrodes (resistance […]) filled with the following composition (mM): KCl 100.0, EGTA 11.0, CaCl2 1.0, MgCl2 1.0, HEPES 10.0, ATP 5.0 pH 7.2. An EPC-9 instrument (HEKA, Germany) was used for registration. Currents were recorded on the hard disk of a Pentium-IV PC using the pulse program, which is also purchased from HEKA. The results were analyzed with the aid of the Pulsefit program (HEKA).

IC50 (cultured rat hippocampus neurons, range and average printed, dihydrochloride, read-out: IC50 of blocking effect on currents caused by application of NMDA) [µM] | SMILES | Change of the blocking effect of MK-801 on NMDA-induced currents after preliminary application of the substance | Blockade of NMDA-induced currents (%) (dimebon alone at 10 μM) | Blockade of NMDA-induced currents (%) by MK-801 after preliminary perfusion with dimebon (preliminary perfusion with dimebon 10 μM, then MK-801) [%]
– | N[C@H](CCCP(=O)(O)O)C(=O)O [D-AP5, D-2-amino-5-phosphonovaleric acid] | did not decrease the blocking effect of MK-801 | – | –
7.7 ± 1.9 | Cc1ccc2c(c1)c1c(n2CCc2ccc(C)nc2)CCN(C)C1 [Dimebon, 2,8-dimethyl-5-[2-(6-methylpyridyl-3)ethyl]-2,3,4,5-tetrahydro-1H-pyrido[4,3-b]indole dihydrochloride] | capable of reducing the blocking effect of MK-801 | By 50-70% at 10 μM | 40±18
